Measurements taken from publication PMC9861623, “New Ferulic Acid and Amino Acid Derivatives with Increased Cosmeceutical and Pharmaceutical Potential” (Pharmaceutics, 2022).
Where “and” joins values, the source holds several entries; their conditions need not be identical. Equal values may be shown once. Read-outs that look alike come from different tables or passages of the source.

Tests used:
[1] = n-octanol/water partition coefficient by shake flask method; type: physicochemical; settings: from log PO/W
Method: The n-octanol/water partition coefficient (log PO/W) was determined for ferulic acid and its derivatives by shake flask method. n-Octanol saturated with water and water saturated with n-octanol were prepared at 25 °C, 24 h prior to their use in the experiments. Then, a sample of 10 mg of compound was weighed with the accuracy of 0.01 mg in a 16 cm^3 screwed vial and dissolved in 5 cm^3 of n-octanol. Next, 5 cm^3 of water was added to the vial. The resulting two-phase mixture was kept in water bath shaker at 25 °C for 2 h and was strongly shaken to reach the partition equilibrium of the compound between the phases. Then the mixture was left unshaken for 30 min and 1.0 cm^3 of water phase was carefully taken out to centrifuge tube. The sample was next centrifuged for 10 min at 7500 rpm at 25 °C to ensure the most precise phase separation. The concentration of compound in water phase was then determined using HPLC method. The partition coefficient, log PO/W was calculated according to the formula: logPO/W=logC0V0−CWVW/CWVW where: C0—initial concentration of the compound in n-octanol, calculated based on the weighed mass of compound, mg·cm^−^3; V0—volume of n-octanol, cm^3; CW—concentration of the compound in water after partition equilibrium, mg·cm^−^3; VW—volume of water, cm^3.

[2] = DPPH antioxidant activity of solution obtained after skin extraction; design: species or system pig; settings: after 24 h penetration, listed as FA
Method: To determine the antioxidant capacity of ferulic acid and its derivatives the DPPH method was used. The analyses were performed using the Hitachi UV-Vis Spectrophotometer U-5100 at the wavelength λ = 517 nm. Trolox (6-hydroxy-2,5,7,8-tetramethylchroman-2-carboxylic acid) was used as a reference substance. The antioxidant activity was expressed as %RSA and mmol Trolox dm^−3. […]. Blank samples without antioxidant were prepared in the same way. The tubes were wrapped in aluminum foil and were sealed with a stopper and then incubated for 10 min at room temperature. After this time, spectrophotometric measurements were carried out in triplicate. For determination of antioxidant activity of the acceptor fluid after 24 h of permeation and solutions obtained by extraction of the skin obtained after penetration study, 0.15 mL samples of each solutions were separately added to 2.85 mL of DPPH solution and spectrophotometric measurements were performed. The antioxidant activity was expressed as mmol Trolox·dm^−3.
The accumulation of the FA and its derivatives in the skin after 24 h permeation process through the skin were determined using a modification of the methods described by Janus et al. and Taokaew et al.. After 24 h of permeation experiment, the skin samples were removed from the Franz diffusion cell, washed three times with 0.5% sodium lauryl sulfate solution and dried at room temperature. Next, after cutting out the diffusion area of each skin sample, the samples were immersed in 2 mL of absolute ethanol and continuously stirred at 300 rpm at room temperature for 24 h. The samples were then centrifuged, and clear solutions were collected and analyzed by HPLC method for the determination of FA and its derivatives. The accumulation of the active substance in the skin was calculated by dividing the amount of the drug remaining in the skin by a mass of skin sample and was expressed in mass active substance per mass of the skin (µg g^−1). For solution obtained after skin extraction, the antioxidant activity and total polyphenol content were also determined (as described in Section 2.5.1 and Section 2.5.2).

L929 cells [3] = tested on: L929 cells; design: method as in PMID 24344870; settings: L929, 72 h, cited from earlier work
L929 cells [4] = tested on: L929 cells; design: method as in PMID 32485864; settings: L929, 24 h, highest tested concentration of 2.5–40 mg L^−1, Trypan blue; cited from earlier work
cancer cells (HepG2) = tested on: cancer cells (HepG2); design: method as in PMID 29077251; settings: HepG2, 500 μg mL^−1; cited from earlier work
NIH-3T3 cells = tested on: NIH-3T3 cells; design: method as in PMID 29077251; settings: NIH-3T3, 500 μg mL^−1; cited from earlier work
fibroblasts = tested on: fibroblasts; design: method as in doi:10.3390/pr9071204; settings: fibroblasts after UVB irradiation, increased from 9.92%; cited from earlier work
[5] = tested on: Murine fibroblasts (L929); assay: Cytotoxicity, PrestoBlue resazurin-based cell viability assay; settings: 0.03125–2.0 mM (any dosage), 24 h
Method: The cell biocompatibility was evaluated using a PrestoBlue HS Cell Viability Reagent (Thermo Fisher Scientific, MA USA) based on the reduction of the resazurin to highly fluorescent resorufin, of which the amount is directly correlated to the number of living cells. […] The cells without tested compounds were used as control. The interaction of tested compounds without cells and Prestoblue Reagent (blank wells) was excluded. After 24 h of treatment, optical microscopy imaging of L929 cells was performed using Smart Fluorescent Cell Analyzer Microscope JuLi (Seoul, Korea). Next, the PrestoBlue reagent (10 μL) was added to each well and incubated for 30 min. The fluorescence was measured using a spectrophotometric microplate reader (Infinite 200 Pro, Tecan, Männedorf, Switzerland) at ex/em: 560/594 nm. The readings were acquired from at least three independent experiments (each conducted in triplicate) and normalized to the control (100% viability).

For COc1cc(/C=C/C(=O)O)ccc1O [Ferulic acid], the “Share of compound partitioned to n-octanol” value [1] was ~98%, the “DPPH antioxidant activity of the solution obtained after skin extraction” value (“DPPH antioxidant activity” for short) ([2]; emulsion) was 0.300 ± 0.024 b mmol Trolox dm^−3 and the “DPPH antioxidant activity” value ([2]; ethanol solution) was 0.394 ± 0.004 mmol Trolox dm^−3 and 0.394 ± 0.004 b mmol Trolox dm^−3. The “DPPH antioxidant activity” value ([2]; hydrogel) was 0.381 ± 0.011 mmol Trolox dm^−3 and 0.381 ± 0.011 b mmol Trolox dm^−3, the cell viability (L929 cells [3]; 500 μg mL^−1 (2.57 mM)) was 67% and the cell viability (L929 cells [3]; 1000 μg mL^−1 (5.15 mM)) was 28%. For the same compound, the cell viability (L929 cells [4]) was 80%, the “viability of cancer cells” value (cancer cells (HepG2)) was “significantly decreased the viability” and the “toxicity on normal cells” value (NIH-3T3 cells) was “did not cause any toxicity”. For the same compound, the “percentage of viable cells” value (fibroblasts) was 46.02% and the “Difference in L929 viability between control and treated cells” value [5] was “No statistically significant differences in viability”.
